Source: patent US20060179492A1, “Method of inhibiting neural transmission mediated by serotonin-2a and enhancing sensorimotor gating” (The Regents of the University of California, priority 2002, published 2006)
Where a name gives a salt, the structure may show the parent alone.

Assays:
[1] = tested on: PPI deficits produced by the serotonin-2A agonist DOI; experiment: DOI-induced disruption of prepulse inhibition (PPI) of the startle reflex; assay type: in vivo, Sprague Dawley rats; conditions: for startle magnitude (main effect, ANOVA): NT69L versus DOI experiment
Protocol: (§1) Animals: Ninety-six male Sprague Dawley rats (250-300 grams at testing) were obtained from Harlan Laboratories, San Diego. In the experiments of Example 1, all groups contained an n of 8. Animals were housed in groups of two or three in clear plastic chambers in a climate controlled room on a 12:12 hour light/dark cycle (lights on 7:00 a.m.-7:00 p.m.). The rats were handled prior to testing. All testing occurred during the light phase of the rats' circadian illumination schedule and they were allowed free access to food and water for the extent of the study, except during the actual testing. Behavioral testing was performed between 9:00 am and 4:30 pm beginning 7 days after arrival. All studies described in this publication were carried out in accordance with the “Principles of laboratory and animal care” as described in the Guide for the Care and Use of Laboratory Animals as adopted and promulgated by the National Institutes of Health.
(§2) Drugs: PD149163 (LysΨ(CH2NH)-Lys-Pro-Trp-tLeu-Leu-OEt) was generously made available by the NIMH Chemical Synthesis and Drug Supply Program, and SR1 International, Menlo Park, Calif. NT69L (N-methyl-Arg-Lys-Pro-L-neo-Trp-tLeu-Leu) was developed at Mayo Clinic, Jacksonville, Fla., as described in Tyler-McMahon et al. 2000. DOI and cirazoline hydrochloride were obtained from Sigma Chemicals, St. Louis, Mo. All drugs used were dissolved in saline.
(§3) Startle Testing and Test Sessions. Startle testing was performed in four identical startle chambers obtained from San Diego Instruments (San Diego, Calif.). Each chamber consisted of a clear non-restrictive Plexiglass cylinder resting on a Plexiglass platform inside a ventilated and illuminated enclosure housed in a sound-attenuated room. A continuous background noise of 65 dB, as well as the various acoustic stimuli, was produced within each chamber by a high-frequency loudspeaker (Radio Shack Supertweeter, San Diego, Calif.). The whole-body startle response of each animal produced vibrations of the Plexiglass cylinder, which were transduced into analog signals by a piezoelectric unit, mounted underneath the Plexiglass platform (Mansbach et al., 1988). These analog signals were then digitized and stored by an interface unit connected to a microcomputer. Startle amplitude was defined as the degree of motion detected by the piezoelectric unit.
(§4) The animals were subjected to a 5-minute acclimation to the 65 dB background noise, which continued throughout the session. The acclimation was followed by a 15 minute PPI test session. Five trial types were presented during the test session: 40 msec 120 dB startle pulses (PULSE-ALONE), startle pulses preceded 100 msecs by 20 msec prepulses of either 4, 8, or 12 dB above background, and NO-[…] trials. All trial types were presented in pseudo-random order separated by an average of 15 seconds. In addition, four PULSE-ALONE trials that were not used in the calculation of PPI values were presented at the beginning and at the end of the test session, to habituate animals to the pulse and in order to provide a measure of habituation across the session.
NT69L versus DOI. Thirty-two drug-naïve rats were administered subcutaneous (SC) injections of the following doses of NT69L, 0 (saline), 0.1, 1, or 2 mg/kg. Thirty minutes later, they were injected SC with either saline or DOI (0.5 mg/kg), a dose known to reliably disrupt PPI. Animals were tested in startle chambers thirty minutes later and PPI measured as described. After one week, animals were tested a second time during which treatment and testing procedures were the same except that rats that previously received DOI received saline and vice versa. The dose of NT69L was kept constant on both test days.
Data and Statistical Analysis. A startle response was recorded for all stimuli presentations. […]

[2] = tested on: PPI deficits produced by DOI; conditions: reported by Geyer et al.; cited from earlier work
[3] = tested on: PPI deficits produced by the alpha-1 adrenergic agonist cirazoline; experiment: Cirazoline-induced disruption of prepulse inhibition (PPI) of the startle reflex; assay type: in vivo, Sprague Dawley rats; conditions: for PPI of saline/cirazoline rats versus saline/saline rats: cirazoline 0.7 mg/kg SC
Protocol: as §1, §2, §3, §4
PD149163 versus cirazoline. Thirty-two drug-naïve rats were administered SC injections of the following doses of PD149163, 0 (saline), 0.01, 0.1, or 1 mg/kg. Thirty minutes later, they were injected SC with either saline or cirazoline (0.7 mg/kg), a dose known to reliably disrupt PPI. Animals were tested in startle chambers thirty minutes later and PPI measured as described. […]

[4] = tested on: BB rats; experiment: Catalepsy bar test; assay type: in vivo, Brattleboro rats; conditions: 30 min after SC: haloperidol 1 mg/kg (P<0.001), clozapine 10 or 15 mg/kg, PD149163 1 or 2 mg/kg; versus saline
Protocol: Doses selected were those that produced the greatest effect in the PPI studies. Thirty minutes after SC injections animals were tested in the using a method described by several other authors (Stanley and Glick, 1976; Costall et al., 1978; Wadenberg, 1996). This method involved placing the forepaws of each rat in an extended position over a pencil that was suspended horizontally 9 cm above the lab bench. The time spent in this position before the animal moved or corrected itself was considered a measure of catalepsy.

[5] = tested on: PPI; conditions: sedating psychotropic drug without antipsychotic properties; cited from earlier work
[6] = tested on: Brown Norway (BN) rats; experiment: PPI in Brown Norway rats with low PPI; assay type: in vivo; conditions: acute administration
[7] = target: serotonin-2A receptor (Homo sapiens, UniProt P28223); conditions: cited from earlier work
serotonin-2A receptor, sequence (P28223 whole entry): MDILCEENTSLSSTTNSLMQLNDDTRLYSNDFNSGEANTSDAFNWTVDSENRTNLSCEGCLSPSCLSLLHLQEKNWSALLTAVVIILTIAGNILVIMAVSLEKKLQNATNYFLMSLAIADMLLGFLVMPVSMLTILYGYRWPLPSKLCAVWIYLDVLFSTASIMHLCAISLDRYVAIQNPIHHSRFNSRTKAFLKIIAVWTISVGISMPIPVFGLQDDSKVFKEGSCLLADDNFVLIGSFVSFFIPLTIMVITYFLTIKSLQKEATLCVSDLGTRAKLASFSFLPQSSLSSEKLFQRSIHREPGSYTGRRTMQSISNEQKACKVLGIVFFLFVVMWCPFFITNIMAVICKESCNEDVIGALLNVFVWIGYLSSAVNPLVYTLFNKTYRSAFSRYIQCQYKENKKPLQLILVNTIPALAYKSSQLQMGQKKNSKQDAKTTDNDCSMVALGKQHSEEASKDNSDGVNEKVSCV

[8] = tested on: alpha-1 adrenergic receptors; conditions: cited from earlier work
[9] = tested on: monoamine receptors; conditions: cited from earlier work

Compound: COc1cc(CC(C)N)c(OC)cc1I.Cl (centres unmarked) [DOI, 1-(2,5-dimethoxy-4-iodophenyl)-2-aminopropane hydrochloride]
- PPI of saline/DOI rats versus saline/saline rats ([1]; DOI 0.5 mg/kg SC, P<0.001): significantly decreased PPI
- startle magnitude (main effect, ANOVA) [1]: no significant main effect

Compound: COc1cccc([C@H](O)C2CCN(CCc3ccc(F)cc3)CC2)c1OC [MDL100907]
- effect on PPI deficits produced by DOI [2]: antagonize PPI deficits produced by DOI

Compound: CN1CC[C@@H]2CN3CCc4cccc(c43)[C@@H]2C1.O=C(O)/C=C/C(=O)O [SDZ SER-082]
- effect on PPI deficits produced by DOI [2]: do not block DOI-induced PPI deficits

Compound: c1ccc(C2CC2)c(OCC2=NCCN2)c1 [cirazoline, cirazoline hydrochloride]
- PPI of saline/cirazoline rats versus saline/saline rats ([3]; NT69L experiment, P<0.05): significantly decreased PPI
- PPI of saline/cirazoline rats versus saline/saline rats ([3]; PD149163 experiment, P<0.01): significantly decreased PPI

Compound: CN1CCN(C2=Nc3cc(Cl)ccc3Nc3ccccc32)CC1 [clozapine]
- catalepsy: time rats remained on the bar [4]: no dose of clozapine or PD149163 significantly increased

Compound: CN1C(=O)CN=C(c2ccccc2)c2cc(Cl)ccc21 [diazepam]
- effect on PPI [5]: decrease rather than facilitate PPI

Compound: O=C(CCCN1CCC(O)(c2ccc(Cl)cc2)CC1)c1ccc(F)cc1 [haloperidol]
- PPI in BN rats [6]: did not enhance PPI
- catalepsy: time rats remained on the bar [4]: significantly increased the time rats remained on the bar
- effect on PPI deficits produced by DOI [2]: do not block DOI-induced PPI deficits

Compound: O=C(c1ccc(F)cc1)C1CCN(CCn2c(=O)[nH]c3ccccc3c2=O)CC1 [ketanserin]
- effect on PPI deficits produced by DOI [2]: antagonize PPI deficits produced by DOI

Compound: CC(C)NCC(O)COc1cccc2ccccc12 (centres unmarked) [propanolol]
- effect on PPI deficits produced by DOI [2]: do not block DOI-induced PPI deficits

Compound: CCN1CCC[C@H]1CNC(=O)c1c(O)c(Cl)cc(Cl)c1OC [raclopride]
- effect on PPI deficits produced by DOI [2]: do not block DOI-induced PPI deficits

Compound: Cc1nc2n(c(=O)c1CCN1CCC(c3noc4cc(F)ccc34)CC1)CCCC2 [risperidone]
- effect on PPI deficits produced by DOI [2]: antagonize PPI deficits produced by DOI

Compound: N-methyl-Arg-Lys-Pro-L-neo-Trp-tLeu-Leu [NT69L]
- PPI versus rats that received DOI/saline ([1]; NT69L 0.1 mg/kg SC + DOI 0.5 mg/kg SC, P<0.001): significantly greater than PPI exhibited by rats that received DOI/saline
- PPI versus rats that received DOI/saline ([1]; NT69L 1 mg/kg SC + DOI 0.5 mg/kg SC, P<0.05): significantly greater than PPI exhibited by rats that received DOI/saline
- PPI versus rats that received DOI/saline ([1]; NT69L 2 mg/kg SC + DOI 0.5 mg/kg SC, P<0.01): significantly greater than PPI exhibited by rats that received DOI/saline
- startle magnitude (main effect, ANOVA) [1]: no significant main effect
- effect on DOI-induced PPI deficits ([1]; all three active doses of NT69L (0.1, 1, 2 mg/kg SC) 30 min before DOI 0.5 mg/kg SC, tested 30 min later): blocked the PPI deficits produced by DOI
- effect on cirazoline-induced PPI deficits ([3]; NT69L 1 mg/kg SC 30 min before cirazoline 0.7 mg/kg SC): blocked the PPI deficits produced by cirazoline
- startle versus rats that received cirazoline and saline ([3]; cirazoline + NT69L 1 mg/kg SC, P<0.05): significantly lower
- startle magnitude (main effect, ANOVA) ([3]; cirazoline experiments, PD149163 P<0.05, NT69L P<0.01): significant main effect
- binding to serotonin-2A receptors [7]: neither PD149163 or NT69L bind
- binding to alpha-1 adrenergic receptors [8]: neither PD149163 or NT69L bind
- affinity for monoamine receptors [9]: minimal affinity
